From patent US20220000403A1, “NEUROT[…] DETECTION SYSTEM AND METHOD OF DETECTING A NEUROT[…]” (Ocumove ApS, priority 2018, published 2022)

Experiments:
Assay type in all cases: in vivo, human
[1] = test system: subjects with ADD; assay: Eye movement signal parameters before/after methylphenidate, ADD subjects (Example 6.6)
Procedure: (§1) Strain gauge sensors (SleepSense Limb Movement Sensors) from SleepSense were used as eye movement sensors. These where connected to a Digital Brain Electric Activity Mapping KT88 EEG apparatus as a recording and frequency analysis arrangement.
(§2) The subjects were instructed to keep their eyes closed, but to refrain from falling asleep.
(§3) The signal from the sensors where filtered by one of two different filters; a 2.5 Hz low pass filter with 24 dB reduction.
(§4) A signal was recorded over a period of 5 minutes. 1 minute of signal is illustrated in FIG. 3.
(§5) Eye movement signals were recorded using the methods described in example 1.
In 3 out of 4 cases, an increase in the amplitude and a decrease in the average frequency was observed.

[2] = test system: subjects with an AHDH or ADD diagnosis; assay: Maximum FFT amplitude before/after startup of methylphenidate treatment (Example 7.3); conditions: for decrease in eye activity (RC): no positive effect of the treatment
Procedure: A number of sample signals were recorded. Each sample was recorded over a period of 360 seconds. Only the middle 240 seconds are used, as the first 60 seconds and the last 60 second of the signal is discarded to avoid introducing artifacts related to the startup and termination of the test and the subject getting used to the eye sensors etc.
The signals were subjected to frequency analysis by FFT with 100 mHz solution.
Maximum amplitude of the frequency distribution (i.e. max FFT amplitude) is identified.
20 subjects with an AHDH or ADD diagnosis were evaluated with respect to effect of startup of methylphenidate treatment. A sample was recorded for each subject in accordance with example 7.2, and a maximum FFT amplitude was outputted from the frequency analysis arrangement (maximum FFT amplitude before, MAB). Thereafter, a startup dose of methylphenidate was prescribed for each subject. After ingestion, a further sample was recorded for each subject, and a maximum FFT amplitude was outputted from the frequency analysis arrangement (maximum FFT amplitude after, MAA).

[3] = test system: subjects with ADHD; assay: Eye movement signal parameters before/after methylphenidate, ADHD subjects (Example 6.6)
Procedure: as §1, §2, §3, §4, §5
Data from 7 subjects with ADHD examined before treatment. Hereafter methylphenidate was administered, and after a subjective assessment of an effect thereof, the measurement was repeated. The sensors were in place during the entire test.

[4] = test system: patient with ADHD; assay: Number of large eye movements before/after medication, Example 5
Procedure: as §1, §2, §3, §4
A large eye movement number was established as the number of times the signals exceeded 50 μV, or moved below −50 μV. This signifies the number of large eye movements.
On FIG. 6A is the result when the patient was in an initial, unmedicated state. A second measurement was made after administering suitable ADHD-medication to the patient (one tablet of 10 mg of methylphenidate), this is shown in FIG. 6B.
Furthermore, the number of eye movements was analyzed as in example 1, before and after medication.

[5] = test system: patient with ADHD; assay: Frequency analysis (FFT) of closed-eye movement signal before/after medication, Example 5; conditions: one tablet of 10 mg
Procedure: as §1, §2, §3, §4
Using eye movement signals recorded as explained in example 1, frequency analysis was performed to determine a frequency distribution. However, only a 10 seconds period corresponding to the first 10 seconds of the latency time of example 2 was used. A Fast Fourier Transformation (FFT) based algorithm was used, with a 100 mHz resolution.
Using eye movement signals recorded as explained in example 1, frequency analysis was performed to determine a frequency distribution. A Fast Fourier Transformation (FFT) based algorithm was used, with a 100 mHz resolution.
In example 5, signals were recorded on a patient with ADHD.
On FIG. 6A is the result when the patient was in an initial, unmedicated state. […]

With `COC(=O)C(c1ccccc1)C1CCCCN1` (centres unmarked) [methylphenidate] the “cases with an increase in the amplitude and a decrease in the average frequency” value ([1]; out of 4 ADD subjects treated with methylphenidate) was 3 cases, the “DATA B Av Amp” value ([1]; subject 146/147, after treatment, before 0.031965) was 0.03275 and the “DATA B FFT Amplitude” value ([1]; subject 146/147, after treatment, before 3) was 6.1. The “DATA B Av Fq” value ([1]; subject 146/147, after treatment, before 5.07667) was 4.083, the “DATA B Av Amp” value ([1]; subject 152/153, after treatment, before 0.061080) was 0.04852 and the “DATA B Av Fq” value ([1]; subject 152/153, after treatment, before 3.62833) was 4.618. For the same molecule, the “DATA B FFT Amplitude” value ([1]; subject 152/153, after treatment, before 5.5) was 4.2, the “DATA B Av Amp” value ([1]; subject 170/171, after treatment, before 0.030927) was 0.02591 and the “DATA B FFT Amplitude” value ([1]; subject 170/171, after treatment, before 2.5) was 2.6. The “DATA B Av Fq” value ([1]; subject 170/171, after treatment, before 5.80555) was 5.523, the “DATA B Av Amp” value ([1]; subject 184/185, after treatment, before 0.054841) was 0.05472 and the “DATA B Av Fq” value ([1]; subject 184/185, after treatment, before 4.42333) was 3.64. The “DATA B FFT Amplitude” value ([1]; subject 184/185, after treatment, before 5.0) was 8.0, the “Eff. M.: Evaluation of effect of methylphenidate” value (from here on “Eff. M.: Evaluation”) ([2]; subject 143 ADHD) was “Good” and the “RC: relative change in FFT amplitude” value ([2]; subject 143 ADHD) was −53. For the same molecule, the “MAA: Maximum FFT amplitude after” value ([2]; subject 143 ADHD, MAB 14.3) was 6.7, the “Eff. M.: Evaluation” value ([2]; subject 146) was “No” and the “RC: relative change in FFT amplitude” value ([2]; subject 146) was 100. The “MAA: Maximum FFT amplitude after” value ([2]; subject 146, MAB 2.8) was 5.6, the “Eff. M.: Evaluation” value ([2]; subject 148 ADHD) was “Good” and the “RC: relative change in FFT amplitude” value ([2]; subject 148 ADHD) was −60. The “MAA: Maximum FFT amplitude after” value ([2]; subject 148 ADHD, MAB 8.7) was 3.5, the “Eff. M.: Evaluation” value ([2]; subject 152) was “Good” and the “RC: relative change in FFT amplitude” value ([2]; subject 152) was −56. The “MAA: Maximum FFT amplitude after” value ([2]; subject 152, MAB 4.58) was 2.0, the “Eff. M.: Evaluation” value ([2]; subject 155) was “No” and the “RC: relative change in FFT amplitude” value ([2]; subject 155) was 17. For the same molecule, the “MAA: Maximum FFT amplitude after” value ([2]; subject 155, MAB 3.6) was 4.2, the “decrease in eye activity (RC)” value ([2]; subject 177) was “below 10%” and the “Eff. M.: Evaluation” value ([2]; subject 177 ADHD) was “No”. The “RC: relative change in FFT amplitude” value ([2]; subject 177 ADHD) was −7, the “MAA: Maximum FFT amplitude after” value ([2]; subject 177 ADHD, MAB 26.7) was 24.8 and the “Eff. M.: Evaluation” value ([2]; subject 179 ADHD) was “Good”. The “RC: relative change in FFT amplitude” value ([2]; subject 179 ADHD) was −65, the “MAA: Maximum FFT amplitude after” value ([2]; subject 179 ADHD, MAB 8.9) was 3.1 and the “Eff. M.: Evaluation” value ([2]; subject 184) was “Good”. The “RC: relative change in FFT amplitude” value ([2]; subject 184) was 65, the “MAA: Maximum FFT amplitude after” value ([2]; subject 184, MAB 4.8) was 7.9 and the “Eff. M.: Evaluation” value ([2]; subject 187 ADHD) was “Good”. For the same molecule, the “RC: relative change in FFT amplitude” value ([2]; subject 187 ADHD) was 19, the “MAA: Maximum FFT amplitude after” value ([2]; subject 187 ADHD, MAB 9.0) was 10.7 and the “Eff. M.: Evaluation” value ([2]; subject 189) was “Good”. The “RC: relative change in FFT amplitude” value ([2]; subject 189) was −39, the “MAA: Maximum FFT amplitude after” value ([2]; subject 189, MAB 9.0) was 5.5 and the “Eff. M.: Evaluation” value ([2]; subject 192 ADHD) was “Good”. The “RC: relative change in FFT amplitude” value ([2]; subject 192 ADHD) was −66, the “MAA: Maximum FFT amplitude after” value ([2]; subject 192 ADHD, MAB 21.4) was 7.3 and the “Eff. M.: Evaluation” value ([2]; subject 197) was “Good”. The “RC: relative change in FFT amplitude” value ([2]; subject 197) was −56, the “MAA: Maximum FFT amplitude after” value ([2]; subject 197, MAB 14.2) was 6.2 and the “Eff. M.: Evaluation” value ([2]; subject 202 ADHD) was “No”. For the same molecule, the “RC: relative change in FFT amplitude” value ([2]; subject 202 ADHD) was 33, the “MAA: Maximum FFT amplitude after” value ([2]; subject 202 ADHD, MAB 34.4) was 45.9 and the “Eff. M.: Evaluation” value ([2]; subject 204 ADHD) was “Good”. For the same molecule, the “RC: relative change in FFT amplitude” value ([2]; subject 204 ADHD) was −66, the “MAA: Maximum FFT amplitude after” value ([2]; subject 204 ADHD, MAB 6.2) was 2.1 and the “Eff. M.: Evaluation” value ([2]; subject 210 ADHD) was “No”. For the same molecule, the “RC: relative change in FFT amplitude” value ([2]; subject 210 ADHD) was 14, the “MAA: Maximum FFT amplitude after” value ([2]; subject 210 ADHD, MAB 7.6) was 8.7 and the “Eff. M.: Evaluation” value ([2]; subject 212) was “No”. For the same molecule, the “RC: relative change in FFT amplitude” value ([2]; subject 212) was 27, the “MAA: Maximum FFT amplitude after” value ([2]; subject 212, MAB 13.1) was 16.7 and the “Eff. M.: Evaluation” value ([2]; subject 248 ADHD) was “No”. For the same molecule, the “RC: relative change in FFT amplitude” value ([2]; subject 248 ADHD) was 14, the “MAA: Maximum FFT amplitude after” value ([2]; subject 248 ADHD, MAB 15.9) was 18.2 and the “Eff. M.: Evaluation” value ([2]; subject 250) was “Good”. The “RC: relative change in FFT amplitude” value ([2]; subject 250) was −24, the “MAA: Maximum FFT amplitude after” value ([2]; subject 250, MAB 15.8) was 12.0 and the “Eff. M.: Evaluation” value ([2]; subject 255) was “Good”. For the same molecule, the “RC: relative change in FFT amplitude” value ([2]; subject 255) was −30, the “MAA: Maximum FFT amplitude after” value ([2]; subject 255, MAB 22.9) was 16.0 and the “Eff. M.: Evaluation” value ([2]; subject 258) was “No”. For the same molecule, the “RC: relative change in FFT amplitude” value ([2]; subject 258) was −2, the “MAA: Maximum FFT amplitude after” value ([2]; subject 258, MAB 11.2) was 11.0 and the “decrease in eye activity (RC)” value ([2]; subject 258) was “below 10%”. For the same molecule, the “cases with a fall in the amplitude and an increase in the average frequency” value ([3]; of 7 subjects with ADHD, after methylphenidate) was 6 cases, the “DATA B Av Fq” value ([3]; subject 143/144, after treatment, before 3.241667) was 4.858 and the “DATA B FFT Amplitude” value ([3]; subject 143/144, after treatment, before 15) was 7. The “DATA B Av Amp” value ([3]; subject 143/144, after treatment, before −0.37474) was 0.001138, the “DATA B Av Fq” value ([3]; subject 167/168, after treatment, before 4.511667) was 4.647 and the “DATA B FFT Amplitude” value ([3]; subject 167/168, after treatment, before 10) was 9.6. The “DATA B Av Amp” value ([3]; subject 167/168, after treatment, before −0.199017) was 0.04479, the “DATA B Av Amp” value ([3]; subject 177/178, after treatment, before 0.578600) was 0.5056 and the “DATA B Av Fq” value ([3]; subject 177/178, after treatment, before 2.05333) was 2.23. For the same molecule, the “DATA B FFT Amplitude” value ([3]; subject 177/178, after treatment, before 28) was 26, the “DATA B Av Amp” value ([3]; subject 179/180, after treatment, before 0.002030) was 0.04999 and the “DATA B Av Fq” value ([3]; subject 179/180, after treatment, before 3.07500) was 3.695. For the same molecule, the “DATA B FFT Amplitude” value ([3]; subject 179/180, after treatment, before 9.5) was 4.1, the “DATA B Av Amp” value ([3]; subject 187/188, after treatment, before 0.061771) was 0.09263 and the “DATA B Av Fq” value ([3]; subject 187/188, after treatment, before 2.73667) was 2.553. The “DATA B FFT Amplitude” value ([3]; subject 187/188, after treatment, before 9.5) was 12, the “DATA B Av Amp” value ([3]; subject 189/190, after treatment, before 0.012759) was 0.007571 and the “DATA B Av Fq” value ([3]; subject 189/190, after treatment, before 3.79500) was 3.947. For the same molecule, the “DATA B FFT Amplitude” value ([3]; subject 189/190, after treatment, before 8.5) was 5.0, the “DATA B Av Amp” value ([3]; subject 192/193, after treatment, before 0.046206) was 0.000667 and the “DATA B Av Fq” value ([3]; subject 192/193, after treatment, before 2.425000) was 4.838. The “DATA B FFT Amplitude” value ([3]; subject 192/193, after treatment, before 22) was 8.0, the “Number of eye movements after medication” value ([4]; 1-60 s, signal exceeding +/− 50 μV, before 54) was 60 and the “Number of eye movements after medication” value ([4]; 61-120 s, before 15) was 0. The “Number of eye movements after medication” value ([4]; 121-180 s, before 23) was 2, the “Number of eye movements after medication” value ([4]; 181-240 s, before 16) was 1 and the “Number of eye movements after medication” value ([4]; 241-300 s, before 14) was 2. For the same molecule, the “maximum value of frequency components after medication, reduction to” value ([5]; 10 s period, FIG. 6C vs 6D) was roughly 20% and the “frequency content after medication, reduction to” value ([5]; 5 min signal, FIG. 6A vs 6B) was roughly 50%.
